Source: patent US20090093501A1, “Heterocyclic antiviral compounds” (Roche Palo Alto LLC, priority 2007, published 2009)

What was measured:
CCR5 = molecular target: T1, CCR5 (Homo sapiens, UniProt P51681); experiment: CCR5-mediated cell-cell fusion (CCF) assay; type: cell-based; conditions: Hela-R5 cells co-cultured with CEM-NKr-CCR5-Luc cells, 24 hrs, luciferase readout
T1 construct: host or cells: CEM-NKr-CCR5-Luc cells, co-cultured with Hela-R5 cells expressing gp160 and HIV-1 Tat
Protocol: CCF assay was performed as described before (C. Ji, J. Zhang, N. Cammack and S. Sankuratri, J. Biomol. Screen. 2006 11(6):652-663). Hela-R5 cells (express gp160 from R5-tropic virus and HIV-1 Tat) were plated in 384 well white culture plates (BD Bioscience, Palo Alto, Calif.) at 7.5×10^3 cells per well in phenol red-free Dulbecco's Modified Eagle Medium (DMEM) supplemented with 10% FBS, 1× Pen-Strep, 300 μg/mL G418, 100 μg/mL hygromycin, and 1 μg/mL Doxycycline (Dox) (BD Bioscience, Palo Alto, Calif.), using Multimek (Beckman, Fullerton, Calif.) and incubated at 37° C. overnight to induce the expression of gp160. Ten μL diluted compounds in medium containing 5% DMSO were added to the cells, followed by the addition of CEM-NKr-CCR5-Luc (obtained from NIH AIDS Research & Reference Reagents Program) that expresses CD4 and CCR5 and carries a […] long terminal repeat (LTR)-driven luciferase reporter gene at 1.5×10^4 cells/15 μL/well and incubated for 24 hrs. At the end of co-culture, 15 μL of Steady-Glo luciferase substrate was added into each well, and the cultures were sealed and gently shaken for 45 min. The luciferase activity were measured for 10 sec per well as luminescence by using 16-channel TopCount NXT (PerkinElmer, Shelton, Conn.) with 10 min dark adaptation and the readout is count per second (CPS). For the drug interaction experiments, small molecule compounds or antibodies were serially diluted in serum-free and phenol red-free RPMI containing 5% DMSO (CalBiochem, La Jolla, Calif.) and 1× Pen-Strep5 μL each of the two diluted compound or mAb to be tested for drug-drug interactions were added to the Hela-R5 cells right before the addition of target cells. Representative results are compiled in TABLE II

T1 sequence (P51681 whole entry, the tested form may be a part): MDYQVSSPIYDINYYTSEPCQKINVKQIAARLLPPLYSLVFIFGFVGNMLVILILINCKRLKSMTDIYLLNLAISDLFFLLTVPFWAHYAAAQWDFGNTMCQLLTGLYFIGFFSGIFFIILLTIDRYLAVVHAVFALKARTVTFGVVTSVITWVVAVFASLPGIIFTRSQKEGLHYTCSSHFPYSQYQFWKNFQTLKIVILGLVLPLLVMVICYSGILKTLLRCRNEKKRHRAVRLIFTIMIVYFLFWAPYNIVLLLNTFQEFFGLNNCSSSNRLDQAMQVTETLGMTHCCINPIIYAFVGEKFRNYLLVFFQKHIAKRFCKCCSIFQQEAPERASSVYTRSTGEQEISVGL

Structure (SMILES) | IC50 (CCR5) [nM] | melting point [°C]
CCCCC1C(=O)N(CC2CCOCC2)CCC12CCN(C1(C)CCN(C(=O)c3c(C)ncnc3C)CC1)CC2 (stereo not shown) [I-3, 1-Butyl-9-[1-(4,6-dimethyl-pyrimidine-5-carbonyl)-4-methyl-piperidin-4-yl]-3-(tetrahydro-pyran-4-ylmethyl)-3,9-diaza-spiro[5.5]undecan-2-one] | 9.5 | 
CCCCC1C(=O)N(CC2CCN(C(=O)OC)CC2)CCC12CCN(C1(C)CCN(C(=O)c3c(C)ncnc3C)CC1)CC2 (stereo not shown) [I-19, 4-{1-Butyl-9-[1-(4,6-dimethyl-pyrimidine-5-carbonyl)-4-methyl-piperidin-4-yl]-2-oxo-3,9-diaza-spiro[5.5]undec-3-ylmethyl}-piperidine-1-carboxylic acid methyl ester] | 7.8 | 
CCCCC1CN(S(=O)(=O)C2CCN(C(C)=O)CC2)CCC12CCN(C1(C)CCN(C(=O)c3c(C)ncnc3C)CC1)CC2 (stereo not shown) [I-25] | 9.8 | 113 to 120
